System: ID8-vegfA-defb29 murine ovarian serous carcinoma cell line
Assay: CPMV and CPMV-AUNP therapy in a tumor mouse model (serous ovarian cancer, IP)
Assay type: in vivo, C57BL/6J mice
Experimental: FIGS. 3A-3B: (FIG. 3A) Female C57BL/6 mice were inoculated (i.p.) with 2×10^6 ID8-Defb29/Vegf-A cells followed by six weekly injections (i.p.) of PBS control (n=5), 1 μg AUNP (n=3), 100 μg CPMV (n=5), 100 μg CPMV-AUNP (n=7), 100 μg CPMV+1 μg AUNP physical mixture (n=7). Body weight was measured to monitor tumor growth. Data are means±SEM. Data are plotted for a minimum of n=3 per group. (FIG. 3B) Survival curves of the treatment groups.
CPMV and CPMV-AUNP therapy in a tumor mouse model: All animal studies were conducted upon approval and in accordance with the University of California, San Diego Institutional Animal Care and Use Committee (IACUC) guidelines. […] Tumor burden was measured by increase in body weight and data were analyzed and plotted using Graphpad Prism software.
To assay efficacy of the CPMV-AUNP nanoparticle, Applicant used a mouse model of serous ovarian cancer. […] Applicant used luciferase-labeled ID8defb29/vegf cells, allowing us to quantify the disease burden and establishment of disease (data not shown). Imaging is only informative at early time points, before the development of ascites, therefore Applicant used imaging to confirm successful tumor cell injection and tumor formation but then monitored body weight to assess tumor burden and 35 grams body weight was defined as the endpoint for the study. […]

SNTSESFGSGGGSGGC [AUNP, anti-PD-1 peptide SNTSESF (side branch of AUNP-12) with GSGGGSGG linker and carboxy-terminal cysteine, from Genscript]
tumor burden as measured by increase in body weight (1 μg weekly IP, up to day 47 (group removed for non-treatment related reasons)): matched closely the PBS control group
efficacy against disseminated ovarian tumors (survival, tumor burden), in words (weekly IP: 100 μg CPMV or CPMV-AUNP, 1 μg AUNP, or 100 μg CPMV+1 μg AUNP): no apparent effect
